Data on two molecules can be found in ChEMBL document CHEMBL3822449, “[Dmt(1)]DALDA analogues modified with tyrosine analogues at position 1” (Bioorg Med Chem Lett, 2016).

Series [1] concerns the target Delta-type opioid receptor (Mus musculus, UniProt P32300). Nature of the series: Agonist activity at delta opioid receptor in albino mouse vas deferens assessed as inhibition of electrically-stimulated muscle contraction. In kind it is tissue-based.
Series [2] is described as follows: Antioxidant activity assessed as DPPH radical scavenging activity incubated for 30 mins. In kind it is physicochemical. The conditions noted are these: 0.5 h. A general note: DPPH is a stable violet radical that fades when it is reduced.

Molecules are shown by their SMILES.

Chain of Delta-type opioid receptor (P32300 whole entry): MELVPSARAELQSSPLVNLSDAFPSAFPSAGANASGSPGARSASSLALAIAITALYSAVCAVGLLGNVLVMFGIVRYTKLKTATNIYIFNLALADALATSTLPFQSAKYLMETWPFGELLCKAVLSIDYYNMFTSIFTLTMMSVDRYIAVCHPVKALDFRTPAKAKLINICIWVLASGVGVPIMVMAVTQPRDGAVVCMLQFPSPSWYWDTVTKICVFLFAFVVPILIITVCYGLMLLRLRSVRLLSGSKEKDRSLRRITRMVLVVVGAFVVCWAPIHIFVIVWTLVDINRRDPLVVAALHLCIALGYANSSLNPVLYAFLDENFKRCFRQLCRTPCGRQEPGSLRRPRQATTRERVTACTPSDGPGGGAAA

As usually defined, the IC50 is the concentration needed to halve the response being measured. `NCCCC[C@H](NC(=O)[C@H](Cc1ccccc1)NC(=O)[C@@H](CCCN=C(N)N)NC(=O)[C@@H](N)Cc1ccc(O)cc1)C(N)=O`: the IC50 in series [1] worked out at 0.781 µM.
As for `Cc1cc(O)cc(C)c1C[C@H](N)C(=O)N[C@H](CCCNC(=N)N)C(=O)N[C@@H](Cc1ccccc1)C(=O)N[C@@H](CCCCN)C(N)=O`, in series [2], the Activity was determined as 31.64%.
